# Test results published in US20190128870A1, “Diagnostic Methods For Patient Specific Therapeutic Decision Making In Cancer Care” (Humeltis, priority 2016, published 2019).
# How the values were obtained:
# glioblastoma tumour = assay: Treatment of the glioblastoma patient; type: in vivo, human
# Method: The patient was treated with BCNU and the tumour was regressing within 2 weeks after the first administration of the drug.
# [1] = tested on: Glioblastoma multiforme 3D aggregates; assay: CellTiter-Glo 3D Cell Viability Assay, glioblastoma drug sensitivity test; type: cell-based, human; conditions: BCNU 0.3, 0.03, 0.003 mg/ml, FIGS. 3 & 4
# Method: Toxicology assay: CellTiter-Glo® 3D Cell Viability Assay (Promega). The CellTiter-Glo® 3D Cell Viability Assay is a homogeneous, luminescent method to determine the number of viable cells in 3D cell culture based on quantitation of the ATP present, which is a marker for the presence of metabolically active cells.
# Aggregates were prepared in 96-well plates and cultures were incubated with the following agents: cisplatin, erlotinib, vinorelbine, and pemetrexed. […] Following 24, 48 h or 72 h incubation, cells were labelled using Annexin V-PI and analyzed by flow cytometry or analysed by Promega CellTiter-Glo® 3D Cell Viability Assay Kit (Luminescent) (ATP detection kit)(FIGS. 3 & 4).
# [2] = tested on: Glioblastoma multiforme 3D aggregates (Glioblastoma 1); assay: Annexin V-PI flow cytometry of drug-treated Glioblastoma 1 3D aggregates; type: cell-based, human
# Method: Two, freshly resected, native samples reached the laboratory directly from the pathologist within 2 hours of surgery. The two samples were treated separately and were labelled as “Glioblastoma 1” and “Glioblastoma 2”. […] The samples were processed according to protocol and drug sensitivity tests were performed using the viable, Sample 1. Samples for DNA and RNA isolation were also stored at −80° C., leaving the opportunity open for additional sequencing or comparative gene expression studies. Traditional out-growth cultures were also prepared from Glioblastoma sample 1 showing the strong viability and proliferative ability of the cells (FIG. 1.). Annexin: Annexin V is used as a non-quantitative probe to detect cells that express phosphatidylserine (PS) on their cell surface, an event found in apoptosis as well as other forms of cell death. The assay combines annexin V staining of PS and PE membrane events with the staining of DNA in the cell nucleus with propidium iodide (PI) or 7-Aminoactinomycin D (AAD-7), distinguishing viable cells from apoptotic cells and necrotic cells. Detection was performed by flow cytometry or a fluorescence microscope. […] Erbitux (Cetuximab): 4.8 mg/ml; […] Erlotinib similarly to Cetuximab is an EGFR inhibitor (the two drugs are frequently used clinically together).
compound,measurement,setting,value
"O=NN(CCCl)C(=O)NCCCl [BCNU, Carmustine]",time to tumour regressing after the first administration of the drug,glioblastoma tumour,≤ 2 weeks
same,sensitivity of the glioblastoma cells,[1],clearly confirmed sensitivity
N.N.[Cl][Pt][Cl] [Cisplatin],Annexin Pl++ Late apoptosis,[2]; 9 μg/m1,0.19%
same,Pl+ ratio within Annexin+ Non-viable,[2]; 9 μg/m1,0.44%
C#Cc1cccc(Nc2ncnc3cc(OCCOC)c(OCCOC)cc23)c1 [Erlotinib],Annexin Pl++ Late apoptosis,[2]; 1 μM,0.32%
same,Pl+ ratio within Annexin+ Non-viable,[2]; 1 μM,0.62%
Nc1nc2[nH]cc(CCc3ccc(C(=O)N[C@@H](CCC(=O)O)C(=O)O)cc3)c2c(=O)[nH]1 [Pemetrexed],Annexin Pl++ Late apoptosis,[2]; 1 μM,0.19%
same,Pl+ ratio within Annexin+ Non-viable,[2]; 1 μM,0.37%
CCC1=C[C@@H]2CN(C1)Cc1c([nH]c3ccccc13)[C@@](C(=O)OC)(c1cc3c(cc1OC)N(C)[C@H]1[C@@](O)(C(=O)OC)[C@H](OC(C)=O)[C@]4(CC)C=CCN5CC[C@]31[C@@H]54)C2 [Vinorelbine],Annexin Pl++ Late apoptosis,[2]; 20 nM,0.49%
same,Pl+ ratio within Annexin+ Non-viable,[2]; 20 nM,0.93%
same,Annexin Pl++ Late apoptosis,[2]; 50 nM,0.05%
same,Pl+ ratio within Annexin+ Non-viable,[2]; 50 nM,0.09%
